From patent EP4570271A1, “METAL-PHOSPHOLIPID COMPLEX, METAL-PHOSPHOLIPID COMPLEX PARTICLE, DRUG-LIPID PARTICLE, METHOD FOR PREPARING SAME, AND USE THEREOF” (priority 2022, dated 2024)

Tested on: 293T cells
Experiment: cells
Assay type: cell-based
Details: Homo sapiens, HEK-293T

| SMILES | IC50 (Table 2-2, 48 hours, CCK8) [µM] | IC50 (Table 4-3, CCK8) [µM] |
| --- | --- | --- |
| CCCCCCCCC(CCCCCC)C(=O)OCCCCCCN(CCCCO)CCCCCCOC(=O)C(CCCCCC)CCCCCCCC (stereo not shown) [ALC0315] | 145 | 145 |
| CCCCCCCC/C=C\CCCCCCCC(=O)OC[C@H](C[N+](C)(C)C)OC(=O)CCCCCCC/C=C\CCCCCCCC [DOTAP, N-(2,3-dioleoyloxy)propyl)-N,N,N-trimethylammonium chloride] | 40.7 | 40.7 |
